We go through two compounds from patent US11372007B2, “Method of detecting biological material, and chemiluminescent indicator used therein” (Osaka University, priority 2017, dated 2022).

In one assay the target is UnaG protein (wild type; UniProtKB/Swiss-Prot: P0DM59.1, GenBank: AB763906.1). As to conditions: indirect bilirubin; Kumagai et al., Cell 2013, 153, 1602-1611; read-out: dissociation constant; cited from earlier work.
Assay [1] has as its target T1, UnaG (CΔ0)-NLuc (NΔ1) fusion protein (wild-type chemiluminescent bilirubin indicator, linker GT), SEQ ID NO: 12 (Anguilla japonica, UniProt P0DM59).
T1 construct: made in house; host or cells: E. coli JM109 (DE3)
Put plainly: titration curve of the wild-type chemiluminescent bilirubin indicator with bilirubin (luminescence spectra, Hill fit). The assay is classed as binding. As to the method:
The base sequence of this UnaG (CΔ0)-NLuc (NΔ1) fusion protein is represented by SEQ ID NO: 11, and the amino acid sequence of the same is represented by SEQ ID NO: 12.
The JM109 (DE3) strain transformed with the UnaG (CΔ0)-NLuc (NΔ1) fusion protein was cultured at 23° C. for 60 hours in 200 mL of LB medium containing 100 μg/mL Carvenisillin solution. After harvesting, the E. coli cells were disrupted by the French press method and purified by affinity chromatography using a Ni-NTA column (QIAGEN). Furthermore, in order to remove excess imidazole, a gel filtration column (PD-10, GE HealthCare) was used. The protein concentration was measured by the Bradford method.
500 μL of the purified UnaG (CΔ0)-NLuc (NΔ1) fusion protein was added to a 15-mL Falcon tube and frozen with liquid nitrogen. Thereafter, a powder of the protein solution was obtained by a lyophilizer. […]
0.01 nM, 0.05 nM, 0.1 nM, 0.5 nM, 1 nM, 2.5 nM, 5 nM, or 10 nM bilirubin (BR) solution and Coelenterazine-h at a final concentration of 5 μM were mixed with the UnaG(CΔ0)-NLuc(NΔ1) fusion protein at a final concentration of 5 nM, and luminescence spectra were measured using a multichannel spectroscope (PMA-12, manufactured by Hamamatsu Photonics K.K.) or a plate reader. […] Mean values of measured values obtained by three independent measurements were plotted, and then fitted as per the Hill equation. […]

T1 sequence (P0DM59 with tags, fused parts or gaps): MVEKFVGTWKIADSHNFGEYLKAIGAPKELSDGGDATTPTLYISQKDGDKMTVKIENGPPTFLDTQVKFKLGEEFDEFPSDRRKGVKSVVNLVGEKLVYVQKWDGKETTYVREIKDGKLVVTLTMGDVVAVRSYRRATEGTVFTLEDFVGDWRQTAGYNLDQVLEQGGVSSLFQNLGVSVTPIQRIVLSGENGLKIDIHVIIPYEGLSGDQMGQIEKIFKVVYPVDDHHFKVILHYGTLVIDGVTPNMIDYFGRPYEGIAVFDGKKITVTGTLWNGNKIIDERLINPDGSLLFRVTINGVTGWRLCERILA

As for `C=CC1=C(C)/C(=C/c2[nH]c(Cc3[nH]c(/C=C4\NC(=O)C(C)=C4C=C)c(C)c3CCC(=O)O)c(CCC(=O)O)c2C)NC1=O` [indirect bilirubin], on UnaG protein, the Kd is 0.098 nM.
`C=CC1=C(C)/C(=C/c2[nH]c(Cc3[nH]c(/C=C4\NC(=O)C(C)=C4C=C)c(C)c3CCC(=O)O)c(CCC(=O)O)c2C)NC1=O` [bilirubin] showed a Kd in assay [1] (fusion protein 5 nM, bilirubin 0.01-10 nM, Coelenterazine-h 5 μM, mean of three independent measurements, fitted as per the Hill equation) of 3.05 nM. In addition, the “affinity for bilirubin (dissociation constant, Kd value), change on storage” value in assay [1] (lyophilized sample dissolved in water, stored at room temperature) was “the affinity was slightly reduced”.
